The molecules below were run against T1, LFA-1 (CD18/CD11a) binding to ICAM-1 (Homo sapiens, UniProt P05107+P20701) (assay: LFA-1/Biotin-sICAM-1 AlphaScreen assay: inhibition of LFA-1 binding to ICAM-1). Settings: 37° C. 90 minutes, highest compound concentration 1 μM.
T1 construct: followed by purified LFA-1 (in buffer of 50 mM triethylamine, 150 mM NaCl, 1% beta octylglucoside)
Source text: Assay to Determine Inhibition of LFA-1 Binding to ICAM-1
This assay protocol is designed to study the direct antagonism, by a test compound, of the interaction of ICAM-1 with the Leukointegrin CD18/CD11a (LFA-1).
The LFA-1/Biotin-sICAM-1 molecular assay measures the ability of test compounds to inhibit binding of LFA-1 to Biotinylated-sICAM using AlphaScreen technology (Ref: Wilson, J, Rossi, C P, Carboni, S, Fremaux, C, Perrin, D, Soto, C, Kosco-Vilbois, M, and Scheer, A: A Homogeneous 384-Well High-Throughput Binding Assay for a TNF Receptor Using Alphascreen Technology. J Biomol Screen 2003; 8:522-532) that uses TS2/4(anti-LFA-1)-custom conjugated AlphaLisa acceptor beads and streptavidin-coated donor beads from PerkinElmer. The assay was performed in white OptiPlates-384 in a volume of 60 μL using assay buffer (Dulbecco's PBS containing calcium and magnesium, 2 mM MgCl2, 0.1 mM PMSF, 0.1% BSA, pH 7.1). To each well, Biotin-sICAM was added followed by purified LFA-1 (in buffer of 50 mM triethylamine, 150 mM NaCl, 1% beta octylglucoside, 2 mM MgCl2 neutralized to pH with 1M Tris-HCl, pH 7.5). For compound testing, compound was added in 5 uL to the above in 25 uL. LFA-1 and Biotin-sICAM-1 were used at concentrations that would yield a signal to background ratio of 8-10. The highest concentration of compound was 1 μM in 1% DMSO. Positive controls were wells without compound containing LFA-1, while blanks were wells without both compound and LFA-1. Plates were mixed and incubated at 37° C. for 90 minutes. This was followed by addition of 15 μL/well TS2/4-conjugated acceptor beads diluted in PBS containing 0.1% BSA for a final concentration of 10 μg/mL. The plates were mixed and incubated in the dark for 30 minutes at room temperature followed by addition of 15 μL/well streptavidin-coated donor beads diluted in PBS containing 0.1% BSA at a final concentration of 15 μg/mL. The plates were mixed and incubated in the dark for 60 minutes at room temperature and then read on an EnVision Multilabel Reader using AlphaScreen 384-well OptiPlate protocol.

T1 sequence (P20701 26-1170): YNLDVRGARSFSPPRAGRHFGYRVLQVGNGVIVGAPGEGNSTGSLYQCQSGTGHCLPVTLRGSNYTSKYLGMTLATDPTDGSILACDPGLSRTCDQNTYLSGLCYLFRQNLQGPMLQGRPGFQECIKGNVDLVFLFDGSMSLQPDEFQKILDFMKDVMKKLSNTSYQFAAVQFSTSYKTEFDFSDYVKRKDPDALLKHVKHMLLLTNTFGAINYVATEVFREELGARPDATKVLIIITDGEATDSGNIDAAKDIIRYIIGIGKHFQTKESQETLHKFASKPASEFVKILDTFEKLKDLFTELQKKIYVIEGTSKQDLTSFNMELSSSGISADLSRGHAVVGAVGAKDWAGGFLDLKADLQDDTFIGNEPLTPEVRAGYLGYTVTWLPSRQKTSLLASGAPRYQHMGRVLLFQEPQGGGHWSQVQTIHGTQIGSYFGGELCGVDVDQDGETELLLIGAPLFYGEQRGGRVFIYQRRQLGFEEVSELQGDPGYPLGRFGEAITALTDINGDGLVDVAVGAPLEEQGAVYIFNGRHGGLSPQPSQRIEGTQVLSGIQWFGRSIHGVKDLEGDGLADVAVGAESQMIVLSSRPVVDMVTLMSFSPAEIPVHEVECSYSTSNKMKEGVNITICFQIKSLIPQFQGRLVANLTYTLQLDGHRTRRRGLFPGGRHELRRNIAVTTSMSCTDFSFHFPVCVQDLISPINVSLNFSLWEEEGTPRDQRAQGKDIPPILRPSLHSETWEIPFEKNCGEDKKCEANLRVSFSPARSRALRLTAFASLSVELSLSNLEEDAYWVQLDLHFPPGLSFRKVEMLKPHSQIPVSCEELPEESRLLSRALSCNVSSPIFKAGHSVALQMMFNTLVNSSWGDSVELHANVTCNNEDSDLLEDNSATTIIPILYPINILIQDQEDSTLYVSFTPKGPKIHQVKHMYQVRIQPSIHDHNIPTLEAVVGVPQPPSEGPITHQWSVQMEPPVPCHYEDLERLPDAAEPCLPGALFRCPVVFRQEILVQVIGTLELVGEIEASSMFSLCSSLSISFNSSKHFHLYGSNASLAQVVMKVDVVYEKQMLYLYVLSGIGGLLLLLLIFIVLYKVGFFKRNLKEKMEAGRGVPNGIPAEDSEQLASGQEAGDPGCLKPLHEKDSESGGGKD
T1 sequence (P05107 23-769 partner): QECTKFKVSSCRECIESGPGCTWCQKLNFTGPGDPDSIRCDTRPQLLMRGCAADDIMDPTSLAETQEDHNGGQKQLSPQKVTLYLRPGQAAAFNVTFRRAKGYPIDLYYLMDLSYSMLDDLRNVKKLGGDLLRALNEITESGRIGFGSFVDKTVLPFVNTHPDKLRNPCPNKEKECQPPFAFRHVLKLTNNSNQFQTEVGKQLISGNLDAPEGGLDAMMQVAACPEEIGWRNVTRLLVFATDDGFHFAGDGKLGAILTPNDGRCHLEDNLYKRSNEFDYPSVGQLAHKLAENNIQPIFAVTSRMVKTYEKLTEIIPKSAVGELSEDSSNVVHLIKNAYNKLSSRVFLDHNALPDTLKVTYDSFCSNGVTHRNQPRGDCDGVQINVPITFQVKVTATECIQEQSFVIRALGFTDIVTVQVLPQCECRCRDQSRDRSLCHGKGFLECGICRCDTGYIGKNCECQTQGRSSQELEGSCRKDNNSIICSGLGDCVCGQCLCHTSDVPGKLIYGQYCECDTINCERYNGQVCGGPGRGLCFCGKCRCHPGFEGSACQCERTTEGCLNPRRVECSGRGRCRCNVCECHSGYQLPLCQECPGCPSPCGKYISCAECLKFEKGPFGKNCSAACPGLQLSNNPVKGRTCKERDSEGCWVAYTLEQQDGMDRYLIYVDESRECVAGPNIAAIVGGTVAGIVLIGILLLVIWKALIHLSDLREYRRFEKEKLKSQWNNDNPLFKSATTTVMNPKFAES

| IC50 | SMILES |
| --- | --- |
| 0.65 nM | C[C@@]1(Cc2ccc(OC(F)(F)F)cc2)C(=O)N(c2cc(Cl)c(F)c(Cl)c2)c2ncc(C(=O)NC3(C(=O)NC4(c5ncc(-c6ccc(CO)nc6)cn5)CC4)CC3)n21 [Compound 110] |
| 1.6 nM | Cc1nn(C)cc1-c1cnc(C2(NC(=O)C3(NC(=O)c4cnc5n4[C@](C)(Cc4ccc(C#N)cc4)C(=O)N5c4cc(Cl)c(F)c(Cl)c4)CC3)CC2)nc1 [Compound 111] |
| 0.54 nM | Cc1ccc(-c2cnc(C3(NC(=O)C4(NC(=O)c5cnc6n5[C@](C)(Cc5ccc(C#N)cc5)C(=O)N6c5cc(Cl)c(F)c(Cl)c5)CC4)CC3)nc2)cn1 [Compound 112] |
| 1.8 nM | C[C@@]1(Cc2ccc(C#N)cc2)C(=O)N(c2cc(Cl)c(F)c(Cl)c2)c2ncc(C(=O)NC3(C(=O)NC4(c5ccc(-c6cccc(S(N)(=O)=O)c6)cn5)CC4)CC3)n21 [Compound 115] |
| 1.3 nM | C[C@@H](NC(=O)C1(NC(=O)c2cnc3n2[C@](C)(Cc2ccc(OC(F)(F)F)cc2)C(=O)N3c2cc(Cl)c(F)c(Cl)c2)CC1)c1ccc(-c2ccc(CO)nc2)cn1 [Compound 116] |
| 0.85 nM | C[C@@H](NC(=O)[C@@H](NC(=O)c1cnc2n1[C@](C)(Cc1ccc(C#N)cc1)C(=O)N2c1cc(Cl)c(F)c(Cl)c1)[C@@H](C)O)c1ccc(-c2ccc(CO)nc2)cn1 [Compound 119] |
| 1.1 nM | Cc1nn(C)cc1-c1ccc(C(C)NC(=O)C(NC(=O)c2cnc3n2C(C)(Cc2ccc(C#N)cc2)C(=O)N3c2cc(Cl)c(F)c(Cl)c2)C(C)O)nc1 (centres unmarked) [Compound 121] |
| 1.4 nM | Cc1nn(C)cc1-c1ccc(C2(NC(=O)C3(NC(=O)c4cnc5n4[C@](C)(Cc4ccc(C#N)cc4)C(=O)N5c4cc(Cl)c(F)c(Cl)c4)CC3)CC2)nc1 [Compound 123] |
| 0.34 nM | CC1(Cc2ccc(C#N)cc2)C(=O)N(c2cc(Cl)cc(Cl)c2)c2ncc(C(=O)NC3(C(=O)NC4(c5ccc(-c6cnoc6)cn5)CC4)CC3)n21 (centres unmarked) [Compound 127] |
| 0.22 nM | C[C@@]1(Cc2ccc(C#N)cc2)C(=O)N(c2cc(Cl)cc(Cl)c2)c2ncc(C(=O)NC3(C(=O)NC4(c5ccc(-c6cn[nH]c6)cn5)CC4)CC3)n21 [Compound 129] |
| 0.99 nM | C[C@@]1(Cc2ccc(C#N)cc2)C(=O)N(c2cc(Cl)cc(Cl)c2)c2ncc(C(=O)NC3(C(=O)NC4(c5ccc(-c6ccc(C(N)=O)cc6)cn5)CC4)CC3)n21 [Compound 131] |
| 0.72 nM | C[C@@]1(Cc2ccc(C#N)cc2)C(=O)N(c2cc(Cl)cc(Cl)c2)c2ncc(C(=O)NC3(C(=O)NC4(c5ccc(-c6ccc(S(N)(=O)=O)cc6)cn5)CC4)CC3)n21 [Compound 132] |
| 1.5 nM | C[C@@]1(Cc2ccc(C#N)cc2)C(=O)N(c2cc(Cl)cc(Cl)c2)c2ncc(C(=O)NC3(C(=O)NC4(c5ccc(-c6ccc(NS(C)(=O)=O)cc6)cn5)CC4)CC3)n21 [Compound 133] |
| 0.64 nM | C[C@@]1(Cc2ccc(C#N)cc2)C(=O)N(c2cc(Cl)cc(Cl)c2)c2ncc(C(=O)NC3(C(=O)NC4(c5ccc(-c6ccc(S(C)(=O)=O)cc6)cn5)CC4)CC3)n21 [Compound 134] |
| 0.64 nM | C[C@@]1(Cc2ccc(C#N)cc2)C(=O)N(c2cc(Cl)cc(Cl)c2)c2ncc(C(=O)NC3(C(=O)NC4(c5ccc(-c6ccc(O)cc6)cn5)CC4)CC3)n21 [Compound 135] |
| 0.56 nM | C[C@@]1(Cc2ccc(C#N)cc2)C(=O)N(c2cc(Cl)cc(Cl)c2)c2ncc(C(=O)NC3(C(=O)NC4(c5ccc(-c6ccc(CO)cc6)cn5)CC4)CC3)n21 [Compound 136] |
| 0.64 nM | C[C@@]1(Cc2ccc(C#N)cc2)C(=O)N(c2cc(Cl)cc(Cl)c2)c2ncc(C(=O)NC3(C(=O)NC4(c5ccc(-c6cccc(S(N)(=O)=O)c6)cn5)CC4)CC3)n21 [Compound 138] |
| 0.53 nM | C[C@@]1(Cc2ccc(C#N)cc2)C(=O)N(c2cc(Cl)cc(Cl)c2)c2ncc(C(=O)NC3(C(=O)NC4(c5ccc(-c6cccc(S(C)(=O)=O)c6)cn5)CC4)CC3)n21 [Compound 141] |
| 1.7 nM | C[C@@]1(Cc2ccc(C#N)cc2)C(=O)N(c2cc(Cl)cc(Cl)c2)c2ncc(C(=O)NC3(C(=O)NC4(c5ccc(-c6cccc(O)c6)cn5)CC4)CC3)n21 [Compound 142] |
| 1.9 nM | C[C@@]1(Cc2ccc(C#N)cc2)C(=O)N(c2cc(Cl)cc(Cl)c2)c2ncc(C(=O)NC3(C(=O)NC4(c5ccc(-c6cccc(CO)c6)cn5)CC4)CC3)n21 [Compound 143] |
| 1.6 nM | C[C@@]1(Cc2ccc(C#N)cc2)C(=O)N(c2cc(Cl)cc(Cl)c2)c2ncc(C(=O)NC3(C(=O)NC4(c5ccc(-c6cnc7[nH]ccc7c6)cn5)CC4)CC3)n21 [Compound 146] |
| 0.33 nM | Cn1cc(-c2ccc(C3(NC(=O)C4(NC(=O)c5cnc6n5[C@](C)(Cc5ccc(C#N)cc5)C(=O)N6c5cc(Cl)cc(Cl)c5)CC4)CC3)nc2)cn1 [Compound 149] |
| 0.68 nM | Cc1nn(C)cc1-c1ccc(C2(NC(=O)C3(NC(=O)c4cnc5n4[C@](C)(Cc4ccc(OC(F)(F)F)cc4)C(=O)N5c4cc(Cl)c(F)c(Cl)c4)CC3)CC2)cn1 [Compound 150] |
| 1.1 nM | CC(O)C(NC(=O)c1cnc2n1C(C)(Cc1ccc(C#N)cc1)C(=O)N2c1cc(Cl)c(F)c(Cl)c1)C(=O)NC1(c2ccc(-c3cnn(C)c3)nc2)CC1 (centres unmarked) [Compound 152] |
| 0.76 nM | Cc1nn(C)cc1-c1ccc(C2(NC(=O)[C@H](CO)NC(=O)c3cnc4n3[C@](C)(Cc3ccc(C#N)cc3)C(=O)N4c3cc(Cl)c(F)c(Cl)c3)CC2)nc1 [Compound 154] |
| 0.56 nM | Cc1nn(C)cc1-c1ccc(C2(NC(=O)[C@@H](NC(=O)c3cnc4n3[C@](C)(Cc3ccc(C#N)cc3)C(=O)N4c3cc(Cl)c(F)c(Cl)c3)[C@@H](C)O)CC2)nc1 [Compound 155] |
| 0.91 nM | Cc1n[nH]c(C)c1-c1ccc(C2(NC(=O)C3(NC(=O)c4cnc5n4[C@](C)(Cc4ccc(C#N)cc4)C(=O)N5c4cc(Cl)c(F)c(Cl)c4)CC3)CC2)nc1 [Compound 157] |
| 1.3 nM | C[C@@]1(Cc2ccc(C#N)cc2)C(=O)N(c2cc(Cl)c(F)c(Cl)c2)c2ncc(C(=O)NC3(C(=O)NC4(c5ccc(-c6ccc(S(C)(=O)=O)cc6)cn5)CC4)CC3)n21 [Compound 158] |
| 0.59 nM | C[C@@H](NC(=O)C1(NC(=O)c2cnc3n2[C@](C)(Cc2ccc(C#N)cc2)C(=O)N3c2cc(Cl)c(F)c(Cl)c2)CC1)c1ccc(-c2ccc(CO)nc2)nc1 [Compound 160] |
